Reference: the NIST ThermoML archive (doi:10.1016/j.tca.2010.05.016)

Assay: wn = mass fraction of the nth substance listed
Details: 101 kPa, Liquid; for speed of sound: Vibrating Tube; for mass density: Vibrating tube method

O=C[C@H](O)[C@@H](O)[C@H](O)[C@H](O)CO [D-glucose] + O
Details	mass density, 288.15 K [kg/m3]	mass density, 293.15 K [kg/m3]	mass density, 298.15 K [kg/m3]	mass density, 303.15 K [kg/m3]	mass density, 308.15 K [kg/m3]	speed of sound, 288.15 K [m/s]	speed of sound, 293.15 K [m/s]	speed of sound, 298.15 K [m/s]	speed of sound, 303.15 K [m/s]	speed of sound, 308.15 K [m/s]
w1 = 0.0206	–	1006.08	1004.86	1003.41	1001.75	1475.6	–	–	1517.3	1527
w1 = 0.0396	1014.53	1013.52	1012.25	1010.76	–	1482.2	1497.7	1511.3	1523	1533
w1 = 0.0591	1022.21	1021.13	1019.81	1018.27	1016.54	1490	1505.1	1518.4	1529.9	1539.5
